From patent US20180125856A1, “USE OF GLUCOCORTICOID RECEPTOR ANTAGONIST AND SOMATOSTATIN ANALOGUES TO TREAT ACTH-SECRETING TUMORS” (Corcept Therapeutics, Inc., priority 2015, published 2018) come the findings set out here.

The data set deals with human patient with an ectopic ACTH-secreting pancreatic neuroendocrine tumor. Kind of data set: Tolerability in a patient. The data set is classed as in vivo. The conditions noted are these: week 20, octreotide LAR continued. The source says:
Mifepristone was resumed for an additional 12-month extension period. […] The collection of cortisol and ACTH data was less frequent during the extension study.

As for `CC#C[C@]1(O)CC[C@H]2[C@@H]3CCC4=CC(=O)CCC4=C3[C@@H](c3ccc(N(C)C)cc3)C[C@@]21C` [mifepristone, 17-β-hydrox-11-β-(4-dimethyl-aminophenyl)17-α-(1-propynyl)estra-4,9-dien-3-one], the “adverse events for which the drug was briefly stopped” value is “significant fatigue, low appetite, and nausea”.
